Experimental data from patent US12545659B2, “IRAK degraders and uses thereof” (Kymera Therapeutics, Inc., priority 2019, dated 2026).

Molecular target: T1, IRAK4 (Homo sapiens, UniProt Q9NWZ3)
T1 construct: endogenous in cells; host or cells: OCI-LY10
T1 sequence (Q9NWZ3 1-460): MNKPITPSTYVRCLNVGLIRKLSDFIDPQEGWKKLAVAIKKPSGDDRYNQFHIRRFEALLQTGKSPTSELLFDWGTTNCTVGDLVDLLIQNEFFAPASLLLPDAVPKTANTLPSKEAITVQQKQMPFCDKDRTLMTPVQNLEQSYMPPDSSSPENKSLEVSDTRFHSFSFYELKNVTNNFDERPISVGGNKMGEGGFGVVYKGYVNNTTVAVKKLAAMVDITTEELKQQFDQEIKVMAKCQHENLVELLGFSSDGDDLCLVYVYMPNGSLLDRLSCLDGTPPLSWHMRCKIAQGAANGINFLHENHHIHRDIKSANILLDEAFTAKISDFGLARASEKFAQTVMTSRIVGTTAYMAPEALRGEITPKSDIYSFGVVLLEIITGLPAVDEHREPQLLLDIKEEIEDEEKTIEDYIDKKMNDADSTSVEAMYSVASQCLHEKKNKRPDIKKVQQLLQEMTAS
Experiment: IRAK4 MSD Degradation in OCI-LY10
Assay type: cell-based
Conditions: OCI-LY10 cells, 4 hrs incubation, read-out: IRAK4 degradation in OCI-LY10 at 4 hrs: DC50
Method: Degradation of IRAK4 in OCI-LY10 was quantitatively measured using Meso Scale Discovery technology. […] Compounds were then added to the assay plates with a final top concentration of 1 to 10 μM in a 1:3 dilution series with total of 8 doses. The assay plates were then incubated for 4 to 24 hours at 37° C. under 5% C02. […] To prepare MSD assay plates (Meso Scale Discovery Catalog number L15XA-3), the plates were coated with […] capture antibody (mouse Anti-IRAK4 antibody [2H9], ab119942) in PBS, at 40 μL/well. […] Cell lysates were then added to MSD assay plates and the plates were incubated at room temperature for 1 hour. The plates were then washed 3 times with 150 μL/well TBST buffer and 25 μL/well primary detection antibody (rabbit Anti-IRAK4 antibody [Y279], from Abcam. Catalog number ab32511, 1 μg/mL). The assay plates were then incubated at room temperature for 1 hour, washed 3 times with 150 μL/well TBST buffer and 25 μL/well secondary detection antibody, SULFO-TAG anti-rabbit antibody were added (anti rabbit antibody from Meso Scale Discovery, Catalog number R32AB-1, 1 μg/mL). The assay plates were then incubated at room temperature for 1 hour, washed 3 times with 150 μL/well TBST buffer, and 150 μL/well MSD reading buffer (Meso Scale Discovery catalog number R92TC-2) was added. The plates were then analyzed by a MSD reader (Meso Scale Discovery, Model Quick Plex SQ 120). The data was then analyzed by software Prism 7.0 from GraphPad and the dose-depended IRAK4 degradation were fit using a three-parameter logistic equation to calculate DC50.
The letter codes for IRAK4 […] include: A (<0.05 μM); B (0.05-0.1 μM); C (0.1-0.5 μM); D (0.5-1.0 μM); and E (>1.0 μM).

DC50 [nM] | Structure (SMILES)
< 50 | Cn1c(=O)n(C2CCC(=O)NC2=O)c2cccc([C@H]3CC[C@@H](N(C)C[C@H]4CC[C@H](n5cc6cc(NC(=O)c7cccc(C(F)(F)F)n7)c(C(F)F)cc6n5)CC4)CC3)c21 (single isomer, unassigned) [I-165, N-[6-(difluoromethyl)-2-[4-[[[4-[1-(2,6-dioxo-3-piperidyl)-3-methyl-2-oxo-benzimidazol-4-yl]cyclohexyl]-methyl-amino]methyl]cyclohexyl]indazol-5-yl]-6-(trifluoromethyl)pyridine-2-carboxamide]
< 50 | COc1cc2nn([C@H]3CC[C@H](CN(C)C4CCN(c5cccc6c5n(C)c(=O)n6C5CCC(=O)NC5=O)CC4)CC3)cc2cc1NC(=O)c1ccc(F)c(C)n1 (stereo partly drawn) [I-189]
< 50 | CN(C[C@H]1CC[C@H](n2cc3cc(NC(=O)c4ccccn4)c(C(C)(C)O)cc3n2)CC1)C1CCN(c2ccc3c(c2)n(C)c(=O)n3C2CCC(=O)NC2=O)CC1 (stereo partly drawn) [I-82]
50 to 100 | Cn1c(=O)n(C2CCC(=O)NC2=O)c2ccc(C3CN(C[C@H]4CC[C@H](n5cc6cc(NC(=O)c7cccc(C(C)(C)F)n7)c(C(F)F)cc6n5)CC4)C3)cc21 (stereo partly drawn) [I-99]
< 50 | CN(C[C@H]1CC[C@H](n2cc3cc(NC(=O)c4cnn5cccnc45)c(C(C)(C)O)cc3n2)CC1)C1CCN(Cc2cccc3c2n(C)c(=O)n3C2CCC(=O)NC2=O)CC1 (stereo partly drawn) [I-50]
50 to 100 | Cn1c(=O)n(C2CCC(=O)NC2=O)c2cccc(CCC3CC4(CCN(C[C@H]5CC[C@H](n6cc7cc(NC(=O)c8cccc(OC(F)(F)F)n8)c(C(C)(C)O)cc7n6)CC5)CC4)C3)c21 (stereo partly drawn) [I-108]
< 50 | COc1cc2nn([C@H]3CC[C@H](CN(C)C4CCN(c5ccc6c(c5)n(C)c(=O)n6C5CCC(=O)NC5=O)CC4)CC3)cc2cc1NC(=O)c1cccc(C(F)(F)F)n1 (stereo partly drawn) [I-107]
500 to 1000 | COc1cc2nn([C@H]3CC[C@H](CN4CCC(c5cccc6c5n(C)c(=O)n6C5CCC(=O)N(C)C5=O)CC4)CC3)cc2cc1NC(=O)c1cccc(C(F)(F)F)n1 (stereo partly drawn) [I-257]
< 50 | Cn1c(=O)n(C2CCC(=O)NC2=O)c2ccc(C#CCCCNC[C@H]3CC[C@H](n4cc5cc(NC(=O)c6cccc(C(F)(F)F)n6)c(C(C)(C)O)cc5n4)CC3)cc21 (stereo partly drawn) [I-61, N-[2-[4-[[5-[1-(2,6-dioxo-3-piperidyl)-3-methyl-2-oxo-benzimidazol-5-yl]pent-4-ynylamino]methyl]cyclohexyl]-6-(1-hydroxy-1-methyl-ethyl)indazol-5-yl]-6-(trifluoromethyl)pyridine-2-carboxamide]
50 to 100 | COc1cc2nn([C@H]3CC[C@H](CN(C)[C@H]4CC[C@@]5(CC4)C[C@@H](Cc4cccc6c4n(C)c(=O)n6C4CCC(=O)NC4=O)C5)CC3)cc2cc1NC(=O)c1cccc(C(F)(F)F)n1 (stereo partly drawn) [I-152]
< 50 | Cn1c(=O)n(C2CCC(=O)NC2=O)c2cccc(C3CCN(C[C@H]4CC[C@H](n5cc6cc(NC(=O)c7cnccn7)c(C(C)(C)O)cc6n5)CC4)CC3)c21 (stereo partly drawn) [I-320]
< 50 | COc1cc2nn([C@H]3CC[C@H](CN4CCN(c5cccc6c5n(C)c(=O)n6C5CCC(=O)NC5=O)CC4)CC3)cc2cc1NC(=O)c1cccc(C(F)(F)F)n1 (stereo partly drawn) [I-171]
< 50 | COc1cc2nn([C@H]3CC[C@H](CN4CCC(c5cccc6c5n(C)c(=O)n6C5CCC(=O)NC5=O)CC4)CC3)cc2cc1NC(=O)c1coc(C)n1 (stereo partly drawn) [I-325]
< 50 | CN(CCCC#Cc1cccc2c1n(C)c(=O)n2C1CCC(=O)NC1=O)C[C@H]1CC[C@H](n2cc3cc(NC(=O)c4cccc(C(F)(F)F)n4)c(C(C)(C)O)cc3n2)CC1 (stereo partly drawn) [I-228, N-(2-((1r,4r)-4-(((5-(1-(2,6-dioxopiperidin-3-yl)-3-methyl-2-oxo-2,3-dihydro-1H-benzo[d]imidazol-4-yl)pent-4-yn-1-yl)(methyl)amino)methyl)cyclohexyl)-6-(2-hydroxypropan-2-yl)-2H-indazol-5-yl)-6-(trifluoromethyl)picolinamide]
< 50 | COc1cc2nn([C@H]3CC[C@H](CN4CC(c5ccc6c(c5)n(C)c(=O)n6C5CCC(=O)NC5=O)C4)CC3)cc2cc1NC(=O)c1cccc(C(F)(F)F)n1 (stereo partly drawn) [I-260]
50 to 100 | CN(C[C@H]1CC[C@H](n2cc3cc(NC(=O)c4ccccn4)c(C(C)(C)O)cc3n2)CC1)C1CCN(Cc2cccc3c2n(C)c(=O)n3C2CCC(=O)NC2=O)CC1 (stereo partly drawn) [I-54]
< 50 | Cn1c(=O)n(C2CCC(=O)NC2=O)c2cccc(CN3CCC(OC4CCN(C[C@H]5CC[C@H](n6cc7cc(NC(=O)c8cccc(C(F)(F)F)n8)c(C(C)(C)O)cc7n6)CC5)CC4)CC3)c21 (stereo partly drawn) [I-66]

Same assay, conditions: OCI-LY10 cells, 24 hrs incubation, read-out: IRAK4 degradation in OCI-LY10 at 24 hrs: DC50

DC50 [nM] | Structure (SMILES)
500 to 1000 | COc1cc2nn([C@H]3CC[C@H](CN4CCC5(CC4)CC(CCNc4cccc6c4C(=O)N(C4CCC(=O)NC4=O)C6=O)C5)CC3)cc2cc1NC(=O)[C@@H]1CCCCN1 (stereo partly drawn) [I-143]
50 to 100 | COc1cc2nn([C@H]3CC[C@H](CN4CCC5(CC4)CC(CNc4cccc6c4C(=O)N(C4CCC(=O)NC4=O)C6=O)C5)CC3)cc2cc1NC(=O)c1cccc(-c2cnn(C)c2)n1 (stereo partly drawn) [I-218]
50 to 100 | CC1(C)OC(c2cccc(C(F)(F)F)n2)=Nc2cc3cn([C@H]4CC[C@H](CN5CCC6(CC5)CC(Nc5cccc7c5C(=O)N(C5CCC(=O)NC5=O)C7=O)C6)CC4)nc3cc21 (stereo partly drawn) [I-127, 4-[[7-[[4-[8,8-Dimethyl-6-[6-(trifluoromethyl)-2-pyridyl]pyrazolo[3,4-g][3,1]benzoxazin-2-yl]cyclohexyl]methyl]-7-azaspiro[3.5]nonan-2-yl]amino]-2-(2,6-dioxo-3-piperidyl)isoindoline-1,3-dione]
50 to 100 | COc1cc2nn([C@H]3CC[C@H](CN4CCC5(CCC(Nc6cccc7c6C(=O)N(C6CCC(=O)NC6=O)C7=O)CC5)CC4)CC3)cc2cc1NC(=O)c1cccc(C(C)(C)F)n1 (stereo partly drawn) [I-88]
50 to 100 | COc1cc2nn([C@H]3CC[C@H](CN4CCC5(CC4)CC(CNc4cccc6c4C(=O)N(C4CCC(=O)NC4=O)C6=O)C5)CC3)cc2cc1NC(=O)c1coc(-c2ccnc(C)c2)n1 (stereo partly drawn) [I-316]
50 to 100 | COc1cc2nn([C@H]3CC[C@H](CN(C)[C@H]4CC[C@]5(CC4)C[C@@H](CNc4cccc6c4C(=O)N(C4CCC(=O)NC4=O)C6=O)C5)CC3)cc2cc1NC(=O)c1cccc(C(F)(F)F)n1 (stereo partly drawn) [I-185]
< 50 | CC(C)(O)c1cc2nn([C@H]3CC[C@H](CN4CCO[C@@H](CCNc5cccc6c5C(=O)N(C5CCC(=O)NC5=O)C6=O)C4)CC3)cc2cc1NC(=O)c1cccc(C(F)(F)F)n1 (stereo partly drawn) [I-65]
50 to 100 | O=C1CCC(N2C(=O)c3cccc(NCCC4CC5(CCN(C[C@H]6CC[C@H](n7cc8cc(NC(=O)c9cccc(C(F)(F)F)n9)c(OC(F)F)cc8n7)CC6)CC5)C4)c3C2=O)C(=O)N1 (stereo partly drawn) [I-89]
50 to 100 | CN(C[C@H]1CC[C@H](n2cc3cc(NC(=O)c4cccc(C(F)(F)F)n4)c(C(C)(C)O)cc3n2)CC1)[C@H]1CC[C@@]2(CC1)C[C@H](Nc1cccc3c1C(=O)N(C1CCC(=O)NC1=O)C3=O)C2 (stereo partly drawn) [I-126]
< 50 | COc1cc2nc([C@H]3CC[C@H](CN4CCC5(CC4)CC(Nc4cccc6c4C(=O)N(C4CCC(=O)NC4=O)C6=O)C5)CC3)oc2cc1NC(=O)c1cnn2cccnc12 (stereo partly drawn) [I-321]
50 to 100 | COc1cc2nn([C@H]3CC[C@H](CN4CCC5(CC4)CC(CNc4ccc6c(c4)C(=O)N(C4CCC(=O)NC4=O)C6=O)C5)CC3)cc2cc1NC(=O)c1cccc(C(F)(F)F)n1 (stereo partly drawn) [I-222]
50 to 100 | COc1cc2nc([C@H]3CC[C@H](CN4CC5(CCC(CNc6cccc7c6C(=O)N(C6CCC(=O)NC6=O)C7=O)CC5)C4)CC3)oc2cc1NC(=O)c1cccc(C(C)(F)F)n1 (stereo partly drawn) [I-292]
100 to 500 | COc1cc2nn([C@H]3CC[C@H](CN(C)CCCO[C@H]4C[C@@H](Nc5cccc6c5C(=O)N(C5CCC(=O)NC5=O)C6=O)C4)CC3)cc2cc1NC(=O)c1cccc(C(F)(F)F)n1 (stereo partly drawn) [I-213]
< 50 | CC(C)(O)c1cc2nn([C@H]3CC[C@H](CN4CCO[C@H](CCCNc5cccc6c5C(=O)N(C5CCC(=O)NC5=O)C6=O)C4)CC3)cc2cc1NC(=O)c1cccc(C(F)(F)F)n1 (stereo partly drawn) [I-64]
< 50 | COc1cc2nn([C@H]3CC[C@H](CN(C)[C@H]4CC[C@H](Nc5cccc6c5C(=O)N(C5CCC(=O)NC5=O)C6=O)CC4)CC3)cc2cc1NC(=O)c1cccc(C)n1 (stereo partly drawn) [I-211]

Structure (SMILES) | DC50 [nM]
COc1cc2nn([C@H]3CC[C@H](CN4CCC5(CC4)CC(CCNc4cccc6c4C(=O)N(C4CCC(=O)NC4=O)C6=O)C5)CC3)cc2cc1NC(=O)c1cccc(C(C)(F)F)n1 (single isomer, unassigned) [I-128] | 50 to 100
